# Source: patent US11566057B2, “Long-acting co-agonists of the glucagon and GLP-1 receptors” (Merck Sharp & Dohme Corp., priority 2017, dated 2023)
# Where two headings read alike, the source gives them in different places. Numbered stars: 1 amine (or outer) side, 2 acyl side, 3 side chain; on linkers, the order of the positions; unused ones are H or OH. Square brackets hold non-standard residues; d marks the D form. Side chains are listed from the residue outwards. Peptide text beside a SMILES is read from it. * marks the point of attachment. Phe(4-CH2NH2) = NCc1ccc(C[C@H](N)C(=O)O)cc1; C18 diacid = O=C(O)CCCCCCCCCCCCCCCCC(=O)*; γGlu = O=C(O)[C@H](CCC(=O)[*:2])N[*:1]; Met(O2) = CS(=O)(=O)CC[C@H](N)C(=O)O; αMeD = C[C@](N)(CC(=O)O)C(=O)O; AEEA = NCCOCCOCC(=O)O; Aib = CC(C)(N)C(=O)O
# How the values were obtained:
# human GCGR = target: T1, human GCGR (Homo sapiens, UniProt P47871); experiment: cAMP activity assay at the Glucagon receptor (GCGR); format: cell-based; conditions: for hGCGR/hGLP1R (hTone): ratio of GCGR EC50 to GLP1R EC50
# T1 construct: expressed in transfected cells; growth medium holds Blasticidin and Hygromycin
# In short: (§1)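 Peptides serially diluted from DMSO (10 points) and added to frozen-stock cells bearing human GLP1R (10,000 cells/well) or GCGR (30,000 cells/well), 1 h at RT, dark. EC50 by four-parameter logistic fit of HitHunter cAMPXS luminescence, read following overnight RT incubation.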
# human GLP1R = target: T2, human GLP1R (Homo sapiens, UniProt P43220); experiment: cAMP activity assay at the GLP-1 receptor (GLP1R); format: cell-based
# T2 construct: expressed in transfected cells; growth medium holds Blasticidin and Hygromycin
# In short: as §1
# [1] = summary statement: EC50 at each of the glucagon and GLP-1 receptors, read-out: EC50 at the glucagon receptor
# [2] = summary statement: EC50 at each of the glucagon and GLP-1 receptors, read-out: EC50 at the GLP-1 receptor
# T1 sequence (P47871 26-477): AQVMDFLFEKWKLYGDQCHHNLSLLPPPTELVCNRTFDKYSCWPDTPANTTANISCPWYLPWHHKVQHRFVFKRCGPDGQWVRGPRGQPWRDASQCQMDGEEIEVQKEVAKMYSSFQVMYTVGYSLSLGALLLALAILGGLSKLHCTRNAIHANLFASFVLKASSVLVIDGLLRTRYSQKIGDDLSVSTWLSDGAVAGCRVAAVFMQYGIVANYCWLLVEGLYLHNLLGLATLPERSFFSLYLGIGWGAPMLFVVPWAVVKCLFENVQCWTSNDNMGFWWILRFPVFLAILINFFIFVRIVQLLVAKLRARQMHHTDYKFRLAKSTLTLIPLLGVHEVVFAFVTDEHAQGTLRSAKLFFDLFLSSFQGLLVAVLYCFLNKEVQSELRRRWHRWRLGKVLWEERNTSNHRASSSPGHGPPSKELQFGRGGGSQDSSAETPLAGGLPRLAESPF
# T2 sequence (P43220 24-463): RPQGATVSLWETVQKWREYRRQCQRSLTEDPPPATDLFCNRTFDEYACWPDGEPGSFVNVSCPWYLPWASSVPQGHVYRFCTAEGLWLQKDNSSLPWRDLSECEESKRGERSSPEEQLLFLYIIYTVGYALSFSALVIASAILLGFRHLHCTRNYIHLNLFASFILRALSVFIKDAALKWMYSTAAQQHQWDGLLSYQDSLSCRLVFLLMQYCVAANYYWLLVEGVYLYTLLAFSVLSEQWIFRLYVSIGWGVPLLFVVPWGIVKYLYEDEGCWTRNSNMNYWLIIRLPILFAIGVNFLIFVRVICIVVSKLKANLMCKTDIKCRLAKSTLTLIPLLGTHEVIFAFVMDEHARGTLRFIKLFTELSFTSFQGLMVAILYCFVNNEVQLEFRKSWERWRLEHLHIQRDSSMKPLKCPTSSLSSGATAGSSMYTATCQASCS
SMILES,"EC50 (human GCGR; cells expressing human GCGR, cAMP production, buffer with or without 20% human serum (not stated which), read-out: GCGR EC50 human)",hGCGR/hGLP1R (hTone) (human GCGR),EC50 (human GCGR; [1]),EC50 (human GLP1R; [2]),"EC50 (human GLP1R; cells expressing human GLP1R, cAMP production, buffer with or without 20% human serum (not stated which), read-out: GLP1R EC50 human)"
CC(C)C[C@H](NC(=O)[C@H](Cc1ccc(O)cc1)NC(=O)[C@H](CCCCN)NC(=O)[C@H](CO)NC(=O)[C@H](Cc1ccc(O)cc1)NC(=O)[C@H](CC(=O)O)NC(=O)[C@H](CO)NC(=O)[C@@H](NC(=O)[C@H](Cc1ccccc1)NC(=O)[C@@H](NC(=O)CNC(=O)[C@H](CCC(N)=O)NC(=O)C(C)(C)NC(=O)[C@@H](N)Cc1c[nH]cn1)[C@@H](C)O)[C@@H](C)O)C(=O)N[C@@H](CC(=O)O)C(=O)N[C@@H](C)C(=O)N[C@@H](CCCNC(=N)N)C(=O)N[C@@H](C)C(=O)N[C@@H](C)C(=O)N[C@@H](Cc1ccc(CNC(=O)COCCOCCNC(=O)CC[C@H](NC(=O)CCCCCCCCCCCCCCCCC(=O)O)C(=O)O)cc1)C(=O)N[C@@H](CC(=O)O)C(=O)N[C@@H](Cc1ccccc1)C(=O)N[C@H](C(=O)N[C@@H](CCC(N)=O)C(=O)N[C@@H](Cc1c[nH]c2ccccc12)C(=O)N[C@@H](CC(C)C)C(=O)N[C@@H](CC(C)C)C(=O)N[C@@H](CC(=O)O)C(=O)N[C@H](C(N)=O)[C@@H](C)O)C(C)C [TP635] (H-H[Aib]QGTFTSDYSKYLDARAA[Phe(4-CH2NH2)]([AEEA-γGlu-C18 diacid])DFVQWLLDT-NH2),0.46 nM,0.2,< 5 nM,< 5 nM,–
CC(C)C[C@H](NC(=O)[C@H](Cc1ccc(O)cc1)NC(=O)[C@H](CCCCN)NC(=O)[C@H](CO)NC(=O)[C@H](Cc1ccc(O)cc1)NC(=O)[C@H](CC(=O)O)NC(=O)[C@H](CO)NC(=O)[C@@H](NC(=O)[C@H](Cc1ccccc1)NC(=O)[C@@H](NC(=O)CNC(=O)[C@H](CCC(N)=O)NC(=O)C(C)(C)NC(=O)[C@@H](N)Cc1c[nH]cn1)[C@@H](C)O)[C@@H](C)O)C(=O)N[C@@H](CC(=O)O)C(=O)N[C@@H](C)C(=O)N[C@@H](CCCNC(=N)N)C(=O)N[C@@H](C)C(=O)N[C@@H](C)C(=O)N[C@@H](Cc1ccc(CNC(=O)COCCOCCNC(=O)COCCOCCNC(=O)CC[C@H](NC(=O)CCCCCCCCCCCCCCCCC(=O)O)C(=O)O)cc1)C(=O)N[C@@H](CC(=O)O)C(=O)N[C@@H](Cc1ccccc1)C(=O)N[C@H](C(=O)N[C@@H](CCC(N)=O)C(=O)N[C@@H](Cc1c[nH]c2ccccc12)C(=O)N[C@@H](CC(C)C)C(=O)N[C@@H](CCS(C)(=O)=O)C(=O)N[C@@](C)(CC(=O)O)C(=O)N[C@H](C(N)=O)[C@@H](C)O)C(C)C [TP636] (H-H[Aib]QGTFTSDYSKYLDARAA[Phe(4-CH2NH2)]([AEEA-AEEA-γGlu-C18 diacid])DFVQWL[Met(O2)][αMeD]T-NH2; N-terminus assumed),–,0.2,< 5 nM,< 5 nM,0.52 nM
CC(C)C[C@H](NC(=O)[C@H](Cc1ccc(O)cc1)NC(=O)[C@H](CCCCN)NC(=O)[C@H](CO)NC(=O)[C@H](Cc1ccc(O)cc1)NC(=O)[C@H](CC(=O)O)NC(=O)[C@H](CO)NC(=O)[C@@H](NC(=O)[C@H](Cc1ccccc1)NC(=O)[C@@H](NC(=O)CNC(=O)[C@H](CCC(N)=O)NC(=O)C(C)(C)NC(=O)[C@@H](N)Cc1c[nH]cn1)[C@@H](C)O)[C@@H](C)O)C(=O)N[C@@H](CC(=O)O)C(=O)N[C@@H](C)C(=O)N[C@@H](CCCNC(=N)N)C(=O)N[C@@H](C)C(=O)N[C@@H](C)C(=O)N[C@@H](CCC(N)=O)C(=O)N[C@@H](CC(=O)O)C(=O)N[C@@H](Cc1ccccc1)C(=O)N[C@H](C(=O)N[C@@H](CCCCNC(=O)COCCOCCNC(=O)CC[C@H](NC(=O)CCCCCCCCCCCCCCCCC(=O)O)C(=O)O)C(=O)N[C@@H](Cc1c[nH]c2ccccc12)C(=O)N[C@@H](CC(C)C)C(=O)N[C@@H](CCS(C)(=O)=O)C(=O)N[C@@H](CC(=O)O)C(=O)N[C@H](C(N)=O)[C@@H](C)O)C(C)C [TP637] (H-H[Aib]QGTFTSDYSKYLDARAAQDFVK([AEEA-γGlu-C18 diacid])WL[Met(O2)]DT-NH2; N-terminus assumed),–,1.8,< 5 nM,< 5 nM,–
